Activity calls are given as the source filed them. No cut-off for these calls is given here.
How the values were obtained:
[1] = tested on: H9c2; experiment: Inhibition of serum-induced endogenous CAMK2 activation in […] H9C2 cells at 5 uM after 30 mins relative to control; format: cell-based
[2] = biological target: T1, Calcium/calmodulin-dependent protein kinase type IV (Homo sapiens) (UniProt Q16566); experiment: Inhibition of CAMK4 (unknown origin) using gamma peptide as substrate assessed as incorporation of 32P at 5 uM after 30 mins by scintillation counting analysis in presence of [gamma32P]ATP relative to control
T1 sequence (whole entry): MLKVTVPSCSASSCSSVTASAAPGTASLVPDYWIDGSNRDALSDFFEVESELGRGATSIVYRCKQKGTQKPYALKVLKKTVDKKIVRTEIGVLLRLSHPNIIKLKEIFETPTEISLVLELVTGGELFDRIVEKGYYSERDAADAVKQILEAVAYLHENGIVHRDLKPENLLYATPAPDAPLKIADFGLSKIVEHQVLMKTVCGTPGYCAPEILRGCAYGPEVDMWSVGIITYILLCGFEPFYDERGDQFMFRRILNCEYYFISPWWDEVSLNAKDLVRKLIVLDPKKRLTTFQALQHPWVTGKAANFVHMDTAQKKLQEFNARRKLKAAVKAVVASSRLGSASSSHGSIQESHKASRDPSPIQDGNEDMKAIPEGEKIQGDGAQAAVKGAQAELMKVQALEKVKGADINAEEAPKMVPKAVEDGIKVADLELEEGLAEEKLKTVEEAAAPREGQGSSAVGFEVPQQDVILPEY

[3] = biological target: Calcium/calmodulin-dependent protein kinase type 1 (Homo sapiens) (UniProt Q14012); experiment: Inhibition of CAMK1 (unknown origin) using ADR1G as substrate assessed as incorporation of 32P at 5 uM after 30 mins by scintillation counting analysis in presence of [gamma32P]ATP relative to control
Chain of Calcium/calmodulin-dependent protein kinase type 1 (Homo sapiens) (Q14012 whole entry, looked up): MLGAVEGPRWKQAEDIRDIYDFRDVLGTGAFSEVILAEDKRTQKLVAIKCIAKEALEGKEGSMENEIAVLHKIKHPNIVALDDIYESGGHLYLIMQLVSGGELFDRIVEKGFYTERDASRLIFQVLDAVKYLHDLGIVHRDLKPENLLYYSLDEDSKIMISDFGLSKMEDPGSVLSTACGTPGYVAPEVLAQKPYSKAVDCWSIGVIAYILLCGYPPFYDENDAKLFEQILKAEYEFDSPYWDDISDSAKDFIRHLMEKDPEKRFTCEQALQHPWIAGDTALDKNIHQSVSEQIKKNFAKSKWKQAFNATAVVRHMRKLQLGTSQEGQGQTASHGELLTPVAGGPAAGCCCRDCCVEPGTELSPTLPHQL

[4] = biological target: Calcium/calmodulin-dependent protein kinase type II subunit alpha (Homo sapiens) (UniProt Q9UQM7); experiment: Inhibition of GFP-tagged CAMK2alpha (unknown origin) expressed in african green monkey Vero cells using syntide2 as substrate assessed as incorporation of 32P at 5 uM after 30 mins by scintillation counting analysis in presence of [gamma32P]ATP relative to control; format: cell-based
Chain of Calcium/calmodulin-dependent protein kinase type II subunit alpha (Homo sapiens) (Q9UQM7 whole entry): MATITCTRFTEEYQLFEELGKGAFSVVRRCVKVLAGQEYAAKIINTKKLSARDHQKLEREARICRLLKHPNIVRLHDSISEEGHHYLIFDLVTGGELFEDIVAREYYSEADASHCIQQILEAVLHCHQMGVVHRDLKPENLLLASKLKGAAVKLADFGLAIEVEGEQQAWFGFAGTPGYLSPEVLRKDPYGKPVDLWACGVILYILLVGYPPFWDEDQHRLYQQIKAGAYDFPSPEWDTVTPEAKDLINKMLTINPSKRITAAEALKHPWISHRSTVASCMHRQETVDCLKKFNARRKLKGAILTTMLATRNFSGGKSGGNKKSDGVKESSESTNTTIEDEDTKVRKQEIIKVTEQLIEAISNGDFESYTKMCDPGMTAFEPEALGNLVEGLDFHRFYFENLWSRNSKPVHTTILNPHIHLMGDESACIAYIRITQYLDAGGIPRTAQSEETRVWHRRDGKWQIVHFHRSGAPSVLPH

Substance	inhibition [1] [%]	inhibition [2]	inhibition [3] [%]	inhibition [4] [%]
H-RQIKIWFQNRRMKWKKGGCKRPPKLGQIGRAKRVVI-OH	52	inactive	6.1	–
H-KRPPKLGQIGRSKRVVI-OH	–	–	–	< 70

— ChEMBL document CHEMBL2331295, “Characterization of a selective CaMKII peptide inhibitor” (Eur J Med Chem, 2013)
